Data from patent US20230257396A1, “MACROCYCLES AND THEIR USE” (BLOSSOMHILL THERAPEUTICS, INC., priority 2020, published 2023).

Experiments:
Test in all cases: KINOMEscan kinase binding assay (Eurofins/DiscoveRx), % Ctrl
Details in all cases: 1 μM
kinases [1] = target: T1, kinases (Homo sapiens, UniProt P00519, H396P)
T1 construct: purchased Eurofins/DiscoveRx; host or cells: E. coli BL21-derived host (T7 phage display) for most kinases; HEK-293 for the rest
Outline: (§1)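 Read-out is qPCR of kinase eluted from ligand-coated streptavidin beads after 1 h room-temperature competition with test compound. Values are % Ctrl at the tested concentration, lower meaning tighter binding.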

kinases [2] = target: T2, kinases (Homo sapiens, UniProt P00519, M351T)
T2 construct: purchased Eurofins/DiscoveRx; host or cells: E. coli BL21-derived host (T7 phage display) for most kinases; HEK-293 for the rest
Outline: as §1

kinases [3] = target: T3, kinases (Homo sapiens, UniProt P00533, DEL752-759)
T3 construct: purchased Eurofins/DiscoveRx; host or cells: E. coli BL21-derived host (T7 phage display) for most kinases; HEK-293 for the rest
Outline: as §1

kinases [4] = target: T4, kinases (Homo sapiens, UniProt P00533, L861Q)
T4 construct: purchased Eurofins/DiscoveRx; host or cells: E. coli BL21-derived host (T7 phage display) for most kinases; HEK-293 for the rest
Outline: as §1

kinases [5] = target: T5, kinases (Homo sapiens, UniProt P00533, T790M)
T5 construct: purchased Eurofins/DiscoveRx; host or cells: E. coli BL21-derived host (T7 phage display) for most kinases; HEK-293 for the rest
Outline: as §1

kinases [6] = target: T6, kinases (Homo sapiens, UniProt P07949, M918T)
T6 construct: purchased Eurofins/DiscoveRx; host or cells: E. coli BL21-derived host (T7 phage display) for most kinases; HEK-293 for the rest
T6 sequence (P07949 29-1114 M918T): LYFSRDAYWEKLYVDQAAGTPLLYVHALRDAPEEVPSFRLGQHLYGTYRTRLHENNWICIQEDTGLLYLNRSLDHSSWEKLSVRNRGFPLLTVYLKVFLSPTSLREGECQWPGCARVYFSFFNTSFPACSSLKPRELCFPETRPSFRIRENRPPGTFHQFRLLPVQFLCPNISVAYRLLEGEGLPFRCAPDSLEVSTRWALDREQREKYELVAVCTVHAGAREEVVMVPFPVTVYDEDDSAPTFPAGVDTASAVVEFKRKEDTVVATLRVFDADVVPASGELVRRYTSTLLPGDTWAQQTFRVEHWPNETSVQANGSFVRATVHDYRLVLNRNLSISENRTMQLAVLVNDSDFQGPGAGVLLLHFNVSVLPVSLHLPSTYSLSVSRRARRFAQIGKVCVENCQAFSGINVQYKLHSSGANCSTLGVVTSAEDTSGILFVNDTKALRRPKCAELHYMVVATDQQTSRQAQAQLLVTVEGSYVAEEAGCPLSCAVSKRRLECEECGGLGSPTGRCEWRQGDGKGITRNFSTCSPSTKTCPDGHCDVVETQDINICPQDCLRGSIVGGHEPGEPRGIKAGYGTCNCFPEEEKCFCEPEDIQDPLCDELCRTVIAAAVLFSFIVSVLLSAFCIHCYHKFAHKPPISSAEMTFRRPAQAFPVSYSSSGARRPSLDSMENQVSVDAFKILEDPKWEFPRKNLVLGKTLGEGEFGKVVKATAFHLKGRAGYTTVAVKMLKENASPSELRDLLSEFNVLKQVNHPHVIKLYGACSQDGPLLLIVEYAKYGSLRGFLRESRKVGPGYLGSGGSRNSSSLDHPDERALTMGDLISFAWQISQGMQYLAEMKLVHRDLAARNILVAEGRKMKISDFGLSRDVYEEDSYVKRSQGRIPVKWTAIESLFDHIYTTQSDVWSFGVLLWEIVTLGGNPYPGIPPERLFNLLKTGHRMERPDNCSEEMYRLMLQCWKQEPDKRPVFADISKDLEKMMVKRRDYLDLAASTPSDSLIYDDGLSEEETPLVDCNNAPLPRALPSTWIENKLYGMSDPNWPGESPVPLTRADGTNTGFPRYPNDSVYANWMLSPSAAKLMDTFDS
Outline: as §1

kinases [7] = target: T7, kinases (Homo sapiens, UniProt P07949, V804L)
T7 construct: purchased Eurofins/DiscoveRx; host or cells: E. coli BL21-derived host (T7 phage display) for most kinases; HEK-293 for the rest
T7 sequence (P07949 29-1114 V804L): as the sequence (P07949 29-1114 M918T) above, with V776L, T890M counted along it
Outline: as §1

kinases [8] = target: T8, kinases (Homo sapiens, UniProt P07949, V804M)
T8 construct: purchased Eurofins/DiscoveRx; host or cells: E. coli BL21-derived host (T7 phage display) for most kinases; HEK-293 for the rest
T8 sequence (P07949 29-1114 V804M): as the sequence (P07949 29-1114 M918T) above, with V776M, T890M counted along it
Outline: as §1

kinases [9] = target: T9, kinases (Homo sapiens, UniProt P09619)
T9 construct: purchased Eurofins/DiscoveRx; host or cells: E. coli BL21-derived host (T7 phage display) for most kinases; HEK-293 for the rest
T9 sequence (P09619 33-1106): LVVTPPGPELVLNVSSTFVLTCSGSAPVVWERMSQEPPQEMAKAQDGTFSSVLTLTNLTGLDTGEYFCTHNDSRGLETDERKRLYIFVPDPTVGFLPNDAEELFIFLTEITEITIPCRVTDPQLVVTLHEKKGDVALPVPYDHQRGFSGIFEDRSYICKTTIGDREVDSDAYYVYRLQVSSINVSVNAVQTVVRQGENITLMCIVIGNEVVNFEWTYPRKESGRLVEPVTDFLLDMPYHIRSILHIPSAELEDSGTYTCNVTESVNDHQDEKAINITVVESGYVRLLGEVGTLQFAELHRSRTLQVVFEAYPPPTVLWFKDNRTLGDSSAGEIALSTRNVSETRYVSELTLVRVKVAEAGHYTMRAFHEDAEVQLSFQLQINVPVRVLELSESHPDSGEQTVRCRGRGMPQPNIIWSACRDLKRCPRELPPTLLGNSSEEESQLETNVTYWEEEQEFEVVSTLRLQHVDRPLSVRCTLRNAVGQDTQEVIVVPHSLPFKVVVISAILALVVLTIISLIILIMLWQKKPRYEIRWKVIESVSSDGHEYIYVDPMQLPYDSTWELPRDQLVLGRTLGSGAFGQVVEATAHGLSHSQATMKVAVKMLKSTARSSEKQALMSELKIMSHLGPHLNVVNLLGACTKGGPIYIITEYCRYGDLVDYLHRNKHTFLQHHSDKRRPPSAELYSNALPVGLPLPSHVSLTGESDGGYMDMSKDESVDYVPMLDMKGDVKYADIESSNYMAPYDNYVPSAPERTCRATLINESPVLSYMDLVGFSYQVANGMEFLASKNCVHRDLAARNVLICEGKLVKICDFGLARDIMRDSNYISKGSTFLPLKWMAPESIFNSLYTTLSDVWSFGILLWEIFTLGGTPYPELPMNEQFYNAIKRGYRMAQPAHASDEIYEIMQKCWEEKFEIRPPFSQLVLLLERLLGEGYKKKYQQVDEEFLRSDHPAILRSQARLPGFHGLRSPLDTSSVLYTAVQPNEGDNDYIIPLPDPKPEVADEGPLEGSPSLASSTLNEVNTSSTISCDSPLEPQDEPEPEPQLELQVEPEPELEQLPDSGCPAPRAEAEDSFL
Outline: as §1

kinases [10] = target: T10, kinases (Homo sapiens, UniProt P10721)
T10 construct: purchased Eurofins/DiscoveRx; host or cells: E. coli BL21-derived host (T7 phage display) for most kinases; HEK-293 for the rest
T10 sequence (P10721 26-976): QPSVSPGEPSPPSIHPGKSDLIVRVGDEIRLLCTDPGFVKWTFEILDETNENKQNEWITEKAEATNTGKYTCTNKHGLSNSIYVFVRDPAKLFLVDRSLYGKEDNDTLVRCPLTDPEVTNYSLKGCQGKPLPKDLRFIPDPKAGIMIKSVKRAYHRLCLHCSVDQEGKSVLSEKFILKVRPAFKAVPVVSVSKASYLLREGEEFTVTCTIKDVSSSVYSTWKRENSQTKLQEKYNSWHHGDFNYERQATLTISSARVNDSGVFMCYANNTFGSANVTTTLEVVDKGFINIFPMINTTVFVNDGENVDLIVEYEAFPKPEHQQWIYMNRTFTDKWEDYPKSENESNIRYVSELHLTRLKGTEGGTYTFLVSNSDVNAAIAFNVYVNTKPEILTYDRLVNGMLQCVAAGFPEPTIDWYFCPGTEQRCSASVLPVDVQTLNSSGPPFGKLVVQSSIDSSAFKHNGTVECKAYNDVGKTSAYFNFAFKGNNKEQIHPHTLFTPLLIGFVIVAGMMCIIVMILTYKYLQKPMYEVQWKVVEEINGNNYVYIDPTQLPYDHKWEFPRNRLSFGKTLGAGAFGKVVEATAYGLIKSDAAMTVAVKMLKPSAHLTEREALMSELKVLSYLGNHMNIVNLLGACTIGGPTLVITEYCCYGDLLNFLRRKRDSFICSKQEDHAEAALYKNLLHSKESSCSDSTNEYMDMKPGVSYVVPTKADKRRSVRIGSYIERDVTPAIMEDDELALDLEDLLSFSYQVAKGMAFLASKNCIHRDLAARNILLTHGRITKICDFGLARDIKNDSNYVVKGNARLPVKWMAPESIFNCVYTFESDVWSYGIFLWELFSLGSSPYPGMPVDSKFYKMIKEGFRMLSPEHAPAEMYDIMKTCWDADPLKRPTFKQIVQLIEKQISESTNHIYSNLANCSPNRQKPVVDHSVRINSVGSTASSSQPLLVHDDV
Outline: as §1

kinases [11] = target: T11, kinases (Homo sapiens, UniProt P10721, D816H)
T11 construct: purchased Eurofins/DiscoveRx; host or cells: E. coli BL21-derived host (T7 phage display) for most kinases; HEK-293 for the rest
T11 sequence (P10721 26-976 D816H): as the sequence (P10721 26-976) above, with D791H counted along it
Outline: as §1

kinases [12] = target: T12, kinases (Homo sapiens, UniProt P10721, V559D)
T12 construct: purchased Eurofins/DiscoveRx; host or cells: E. coli BL21-derived host (T7 phage display) for most kinases; HEK-293 for the rest
T12 sequence (P10721 26-976 V559D): as the sequence (P10721 26-976) above, with V534D counted along it
Outline: as §1

kinases [13] = target: T13, kinases (Homo sapiens, UniProt P35916)
T13 construct: purchased Eurofins/DiscoveRx; host or cells: E. coli BL21-derived host (T7 phage display) for most kinases; HEK-293 for the rest
Outline: as §1

kinases [14] = target: T14, kinases (Homo sapiens, UniProt P36888)
T14 construct: purchased Eurofins/DiscoveRx; host or cells: E. coli BL21-derived host (T7 phage display) for most kinases; HEK-293 for the rest
T14 sequence (P36888 27-993): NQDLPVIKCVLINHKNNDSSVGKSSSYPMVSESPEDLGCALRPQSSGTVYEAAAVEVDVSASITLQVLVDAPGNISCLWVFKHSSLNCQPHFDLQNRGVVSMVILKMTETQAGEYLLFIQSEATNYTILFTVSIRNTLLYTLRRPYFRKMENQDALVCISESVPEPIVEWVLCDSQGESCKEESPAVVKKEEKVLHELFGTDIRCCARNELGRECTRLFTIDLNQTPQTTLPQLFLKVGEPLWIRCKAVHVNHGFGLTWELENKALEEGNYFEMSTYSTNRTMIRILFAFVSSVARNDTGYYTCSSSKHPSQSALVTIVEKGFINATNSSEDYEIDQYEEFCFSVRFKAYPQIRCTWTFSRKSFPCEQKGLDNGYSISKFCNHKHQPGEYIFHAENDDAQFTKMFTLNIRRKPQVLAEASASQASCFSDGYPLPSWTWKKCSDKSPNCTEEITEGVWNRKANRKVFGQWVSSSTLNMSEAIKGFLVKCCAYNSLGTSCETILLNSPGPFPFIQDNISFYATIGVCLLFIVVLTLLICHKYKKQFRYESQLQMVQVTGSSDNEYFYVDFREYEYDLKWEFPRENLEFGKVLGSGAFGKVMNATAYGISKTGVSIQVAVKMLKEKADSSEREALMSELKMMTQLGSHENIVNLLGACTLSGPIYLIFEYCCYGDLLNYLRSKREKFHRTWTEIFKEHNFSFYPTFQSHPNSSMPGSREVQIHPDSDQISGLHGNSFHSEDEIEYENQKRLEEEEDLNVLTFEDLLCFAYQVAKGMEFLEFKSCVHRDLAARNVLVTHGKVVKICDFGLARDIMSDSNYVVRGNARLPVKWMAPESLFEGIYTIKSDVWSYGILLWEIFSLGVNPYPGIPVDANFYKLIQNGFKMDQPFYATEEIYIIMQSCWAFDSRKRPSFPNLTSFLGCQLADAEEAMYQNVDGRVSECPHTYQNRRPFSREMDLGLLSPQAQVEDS
Outline: as §1

kinases [15] = target: T15, kinases (Homo sapiens, UniProt P42684)
T15 construct: purchased Eurofins/DiscoveRx; host or cells: E. coli BL21-derived host (T7 phage display) for most kinases; HEK-293 for the rest
T15 sequence (P42684 whole entry): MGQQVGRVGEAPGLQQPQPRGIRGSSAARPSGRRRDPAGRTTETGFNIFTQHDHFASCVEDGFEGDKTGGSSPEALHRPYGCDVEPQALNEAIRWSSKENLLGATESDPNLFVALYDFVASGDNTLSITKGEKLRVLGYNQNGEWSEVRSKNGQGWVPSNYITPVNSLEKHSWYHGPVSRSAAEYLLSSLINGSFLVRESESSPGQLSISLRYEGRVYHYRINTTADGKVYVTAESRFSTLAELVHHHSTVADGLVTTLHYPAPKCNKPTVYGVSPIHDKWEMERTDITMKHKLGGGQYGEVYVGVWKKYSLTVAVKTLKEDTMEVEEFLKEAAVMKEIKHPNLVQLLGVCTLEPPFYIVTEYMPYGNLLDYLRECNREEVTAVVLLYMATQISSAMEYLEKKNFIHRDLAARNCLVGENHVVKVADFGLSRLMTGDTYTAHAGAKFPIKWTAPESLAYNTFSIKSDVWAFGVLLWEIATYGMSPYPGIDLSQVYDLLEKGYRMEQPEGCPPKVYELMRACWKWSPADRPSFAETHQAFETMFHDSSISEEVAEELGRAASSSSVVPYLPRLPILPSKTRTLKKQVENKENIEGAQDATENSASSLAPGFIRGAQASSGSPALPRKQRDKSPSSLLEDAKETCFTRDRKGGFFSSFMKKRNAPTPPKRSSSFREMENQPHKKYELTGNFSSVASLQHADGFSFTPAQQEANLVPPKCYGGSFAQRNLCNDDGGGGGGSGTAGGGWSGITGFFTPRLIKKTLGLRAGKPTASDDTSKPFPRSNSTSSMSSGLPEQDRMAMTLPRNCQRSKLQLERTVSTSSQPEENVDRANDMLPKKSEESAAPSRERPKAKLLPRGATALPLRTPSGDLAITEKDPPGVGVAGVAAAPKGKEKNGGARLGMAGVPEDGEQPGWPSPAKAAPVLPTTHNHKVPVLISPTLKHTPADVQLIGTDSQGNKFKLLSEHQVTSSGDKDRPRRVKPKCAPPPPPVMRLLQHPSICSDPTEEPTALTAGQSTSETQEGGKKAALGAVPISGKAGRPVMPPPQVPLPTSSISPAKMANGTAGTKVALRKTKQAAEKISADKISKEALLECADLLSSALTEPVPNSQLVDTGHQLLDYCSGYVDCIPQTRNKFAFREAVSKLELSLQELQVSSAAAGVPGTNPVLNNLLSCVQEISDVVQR
Outline: as §1

[16] = target ABL1(H396P)-nonphosphorylated
[17] = target ABL1(H396P)-phosphorylated
[18] = target ABL1(M351T)-phosphorylated

% Ctrl, ABL1(H396P)-nonphosphorylated (kinases [1]; [16]) [% Ctrl]	% Ctrl, ABL1(H396P)-phosphorylated (kinases [1]; [17]) [% Ctrl]	% Ctrl, ABL1(M351T)-phosphorylated (kinases [2]; [18]) [% Ctrl]	% Ctrl, EGFR(S752-I759del) (kinases [3]; target EGFR(S752-I759del)) [% Ctrl]	% Ctrl, EGFR(L861Q) (kinases [4]; target EGFR(L861Q)) [% Ctrl]	% Ctrl, EGFR(T790M) (kinases [5]; target EGFR(T790M)) [% Ctrl]	% Ctrl, RET(M918T) (kinases [6]; target RET(M918T)) [% Ctrl]	% Ctrl, RET(V804L) (kinases [7]; target RET(V804L)) [% Ctrl]	% Ctrl, RET(V804M) (kinases [8]; target RET(V804M)) [% Ctrl]	% Ctrl, PDGFRB (kinases [9]; target PDGFRB) [% Ctrl]	% Ctrl, KIT-autoinhibited (kinases [10]; target KIT-autoinhibited) [% Ctrl]	% Ctrl, KIT (kinases [10]; target KIT) [% Ctrl]	% Ctrl, KIT(D816H) (kinases [11]; target KIT(D816H)) [% Ctrl]	% Ctrl, KIT(V559D) (kinases [12]; target KIT(V559D)) [% Ctrl]	% Ctrl, FLT4 (kinases [13]; target FLT4) [% Ctrl]	% Ctrl, FLT3-autoinhibited (kinases [14]; target FLT3-autoinhibited) [% Ctrl]	% Ctrl, FLT3 (kinases [14]; target FLT3) [% Ctrl]	% Ctrl, ABL2 (kinases [15]; target ABL2) [% Ctrl]	SMILES	further results
2	9.5	7.3	74	88	36	41	15	23	73	81	94	67	91	23	67	33	70	Cc1cc2c([nH]1)/C=C1\C(=O)Nc3ccc(cc31)-c1c(noc1C)CNCCN(C)C2=O [Ex. 139, [3a(4)Z]-6,9,16-trimethyl-10,11,12,13-tetrahydro-2H-1,17-(ethanediylidene)[1,2]oxazolo[4,3-m]dipyrrolo[3,2-f:3′,4′-i][1,4]diazacyclopentadecine-3,8(5H,9H)-dione]	
																		Cc1cc2c([nH]1)/C=C1\C(=O)Nc3ccc(cc31)-c1ccnn1CCOCCNC2=O [Ex.39, [19a(20)Z]-2-methyl-6,7,9,10-tetrahydro-1H-15,17-(ethanediylidene)pyrazolo[1,5-d]dipyrrolo[3,4-h:2′,3′-k][1,4,14]oxadiazacyclohexadecine-4,19(5H,18H)-dione]	% Ctrl, ABL1(H396P)-nonphosphorylated (kinases [1]; ABL1(H396P)-nonphosphorylated): 74 % Ctrl; % Ctrl, ABL1(H396P)-phosphorylated (kinases [1]; ABL1(H396P)-phosphorylated): 82 % Ctrl; % Ctrl, ABL1(M351T)-phosphorylated (kinases [2]; ABL1(M351T)-phosphorylated): 58 % Ctrl; % Ctrl, EGFR(S752-I759del) (kinases [3]; EGFR(S752-I759del)): 80 % Ctrl; % Ctrl, EGFR(L861Q) (kinases [4]; EGFR(L861Q)): 68 % Ctrl; % Ctrl, EGFR(T790M) (kinases [5]; EGFR(T790M)): 99 % Ctrl; % Ctrl, RET(M918T) (kinases [6]; RET(M918T)): 97 % Ctrl; % Ctrl, RET(V804L) (kinases [7]; RET(V804L)): 87 % Ctrl; % Ctrl, RET(V804M) (kinases [8]; RET(V804M)): 94 % Ctrl; % Ctrl, PDGFRB (kinases [9]; PDGFRB): 91 % Ctrl; % Ctrl, KIT (kinases [10]; KIT): 90 % Ctrl; % Ctrl, KIT-autoinhibited (kinases [10]; KIT-autoinhibited): 86 % Ctrl; % Ctrl, KIT(D816H) (kinases [11]; KIT(D816H)): 83 % Ctrl; % Ctrl, KIT(V559D) (kinases [12]; KIT(V559D)): 99 % Ctrl; % Ctrl, FLT4 (kinases [13]; FLT4): 98 % Ctrl; % Ctrl, FLT3 (kinases [14]; FLT3): 100 % Ctrl; % Ctrl, FLT3-autoinhibited (kinases [14]; FLT3-autoinhibited): 85 % Ctrl; % Ctrl, ABL2 (kinases [15]; ABL2): 89 % Ctrl
50	80	67	83	89	57	27	3	12	96	80	96	100	75	78	100	24	83	Cc1cc2c([nH]1)/C=C1\C(=O)Nc3ccc(cc31)-c1c(C)nn(C)c1COCCN(C)C2=O [Ex. 146, [3a(4)Z]-6,9,14,16-tetramethyl-10,11,13,14-tetrahydro-2H-1,17-(ethanediylidene)pyrazolo[4,3-m]dipyrrolo[3,2-f:3′,4′-i][1,4]oxazacyclopentadecine-3,8(5H,9H)-dione]	
